“And” between values parts separate entries of the source, which are not always exact repeats. Equal entries are not always repeated.
Legend:
Format in all cases: biochemical
15-LO = biological target: T1, 15-LO (Oryctolagus cuniculus, UniProt P12530); assay: 15-LO assay (13-HPODE, spectrophotometric); conditions: rabbit reticulocytes; 13-HPODE spectrophotometrically
T1 construct: endogenous in cells; host or cells: rabbit reticulocytes
T1 sequence (P12530 1-663): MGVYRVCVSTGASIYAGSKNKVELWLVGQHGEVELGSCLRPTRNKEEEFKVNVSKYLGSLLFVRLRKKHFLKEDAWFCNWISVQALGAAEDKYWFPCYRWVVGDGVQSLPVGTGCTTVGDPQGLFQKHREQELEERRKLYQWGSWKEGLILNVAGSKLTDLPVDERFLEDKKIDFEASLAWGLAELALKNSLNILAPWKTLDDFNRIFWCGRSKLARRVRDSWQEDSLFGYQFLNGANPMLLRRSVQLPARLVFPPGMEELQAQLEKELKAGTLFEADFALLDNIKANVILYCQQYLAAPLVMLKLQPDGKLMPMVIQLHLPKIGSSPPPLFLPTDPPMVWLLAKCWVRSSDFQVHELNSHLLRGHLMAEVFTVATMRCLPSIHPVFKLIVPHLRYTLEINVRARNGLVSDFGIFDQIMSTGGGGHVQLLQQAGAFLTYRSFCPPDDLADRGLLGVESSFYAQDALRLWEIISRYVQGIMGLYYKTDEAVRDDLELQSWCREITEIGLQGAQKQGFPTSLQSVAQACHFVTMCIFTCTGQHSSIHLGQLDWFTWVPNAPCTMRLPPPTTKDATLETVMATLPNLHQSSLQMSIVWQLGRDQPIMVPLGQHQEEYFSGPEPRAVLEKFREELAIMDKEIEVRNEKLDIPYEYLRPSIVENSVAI
Method: (§1) 5-LO and 15-LO assays: Human peripheral blood mononuclear cells (PBMC) cells and rabbits reticulocytes were used in the 5-LO and 15-LO bioassays, and the assays were conducted according to the protocols reported previously, with either linoleic acid or arachidonic acid as substrates. LO activity was measured by quantifying immunodetectable Leukotriene B4 (LTB4) specifically with enzyme immunoassay (EIA) in the 5-LO assay, or monitoring 13-hydroperoxy-9,11-octadecadienoic acid (13-HPODE) spectrophotometrically in the 15-LO assay.
(§2) The results were expressed as either percentage inhibition, or IC50, for test samples and data represent the average ±SD of at least triplicate determinations.

Human recombinant COX-2 = biological target: T2, Human recombinant COX-2 (Homo sapiens, UniProt P35354); assay: COX-2 inhibition assay (PGE2 EIA); conditions: human recombinant COX-2 expressed in Sf21 cells; 0.3 μM arachidonic acid
T2 construct: purchased Sigma C-0858; host or cells: insect Sf21 cells
T2 sequence (P35354 18-604): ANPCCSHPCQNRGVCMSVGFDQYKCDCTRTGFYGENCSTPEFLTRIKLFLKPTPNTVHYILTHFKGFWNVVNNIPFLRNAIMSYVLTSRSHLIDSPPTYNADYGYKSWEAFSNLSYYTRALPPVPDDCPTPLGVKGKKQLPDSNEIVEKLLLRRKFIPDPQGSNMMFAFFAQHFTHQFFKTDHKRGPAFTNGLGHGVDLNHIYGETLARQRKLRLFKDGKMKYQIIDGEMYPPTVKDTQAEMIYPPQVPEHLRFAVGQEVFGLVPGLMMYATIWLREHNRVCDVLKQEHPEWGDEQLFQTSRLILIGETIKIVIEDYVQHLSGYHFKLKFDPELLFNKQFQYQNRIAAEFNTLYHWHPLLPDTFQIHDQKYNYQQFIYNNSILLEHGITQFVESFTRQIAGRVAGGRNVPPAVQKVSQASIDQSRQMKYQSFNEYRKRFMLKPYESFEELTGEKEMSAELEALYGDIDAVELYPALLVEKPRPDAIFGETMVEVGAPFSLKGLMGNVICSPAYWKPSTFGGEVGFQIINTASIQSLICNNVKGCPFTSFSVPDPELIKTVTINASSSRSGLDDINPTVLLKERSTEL
Method: COX-1 and COX-2 assays: COX-1 and -2 Inhibition assays were performed by the methods described previously with minor modifications. COX-2 enzyme was purchased from Sigma (Catalog # C-0858), and the PGE2 EIA kit from Amersham (Catalog # RPN 220). Human recombinant COX-2, expressed in insect Sf21 cells, and human platelets, respectively, were used in the COX-2 and COX-1 assays. The extract and partitions were dissolved in DMSO (Sigma, USA), and tested at 100 μg/mL (final concentration). The pure compounds were initially tested at 30 μM. […] Test samples were preincubated with 0.12 μg/ml enzyme in modified Tris-HCl buffer pH 7.7 (COX-2), and with cells (5×10^7/ml), in modified HEPES buffer pH 7.4 (COX-1) for 15 minutes at 37° C. The reactions were initiated by addition of 0.3 μM arachidonic acid (COX-2), and 100 μM arachidonic acid (COX-1), respectively, for another 5-minute incubation period, then terminated by further addition of 1 N HCl. An aliquot was then combined with the EIA kit for spectrophotometric determination of the quantity of PGE2 formed.
as §2

5-LO = biological target: T3, 5-LO (Homo sapiens, UniProt P09917); assay: 5-LO assay (LTB4 by EIA); conditions: human PBMC
T3 construct: endogenous in cells; host or cells: human peripheral blood mononuclear cells (PBMC)
T3 sequence (P09917 1-674): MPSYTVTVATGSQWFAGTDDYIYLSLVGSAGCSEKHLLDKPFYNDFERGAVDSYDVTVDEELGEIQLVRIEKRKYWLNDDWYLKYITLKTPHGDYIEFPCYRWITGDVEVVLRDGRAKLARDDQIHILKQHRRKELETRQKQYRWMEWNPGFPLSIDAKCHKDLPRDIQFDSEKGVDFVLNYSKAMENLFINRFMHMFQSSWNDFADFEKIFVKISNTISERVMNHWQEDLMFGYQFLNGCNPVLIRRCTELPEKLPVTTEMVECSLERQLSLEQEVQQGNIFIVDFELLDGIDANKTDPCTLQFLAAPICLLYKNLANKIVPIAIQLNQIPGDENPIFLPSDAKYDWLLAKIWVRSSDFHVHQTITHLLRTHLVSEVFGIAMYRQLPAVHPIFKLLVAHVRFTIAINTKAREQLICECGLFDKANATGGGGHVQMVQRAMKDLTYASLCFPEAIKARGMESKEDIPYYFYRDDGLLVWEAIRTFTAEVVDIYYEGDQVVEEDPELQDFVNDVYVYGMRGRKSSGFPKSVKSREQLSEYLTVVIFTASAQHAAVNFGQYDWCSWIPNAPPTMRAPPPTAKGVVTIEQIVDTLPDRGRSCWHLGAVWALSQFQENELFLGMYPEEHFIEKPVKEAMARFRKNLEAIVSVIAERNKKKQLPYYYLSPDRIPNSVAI
Method: as §1, §2

IC50 (15-LO) | IC50 (5-LO) | SMILES | IC50 (Human recombinant COX-2)
520 nM |  | Oc1ccc(C2OCC3C(c4ccc(O)c(O)c4)OCC23)cc1O (stereo not drawn) [compound 4, 3,3′-bisdemethylpinoresinol] | > 100000 nM
16500 nM |  | COc1cc2ccc(=O)oc2cc1O [compound 7, scopoletin] | 
15100 nM |  | COc1cc2oc(=O)ccc2cc1O [compound 8, isoscopoletin] | 
2200 nM | 2650 to 13800 nM and 2700 nM | O=c1c(O)c(-c2ccc(O)cc2)oc2cc(O)cc(O)c12 [compound 6, kaempferol] | 

SMILES | IC50 (15-LO) | IC50 (5-LO) | IC50 (Human recombinant COX-2)
O=c1c(O)c(-c2ccc(O)c(O)c2)oc2cc(O)cc(O)c12 [compound 5, quercetin] | 430 nM |  | 28600 nM
OCC1C(c2ccc(O)c(O)c2)OCC1C(O)c1ccc(O)c(O)c1 (single isomer, unassigned; (+)) [compound 2, (+)-3,3′-bisdemethyltanegool] | 760 nM |  | 73900 nM
O=C1OC(c2ccc(O)c(O)c2)C2COC(c3ccc(O)c(O)c3)C12 (single isomer, unassigned; (+)) [compound 1, (+)-3,4,3′,4′-tetrahydroxy-9,7′α-epoxylignano-7α,9′-lactone] | 520 nM |  | 90200 nM

Source: patent US20080226758A1, “Lipoxygenase and Cyclooxygenase Inhibition” (priority 2006, published 2008)
